Reference: patent US11666558B2, “Methods of treating intraocular pressure with activators of Tie-2” (EyePoint Pharmaceuticals, Inc., priority 2015, dated 2023)
Where two headings read alike, the source gives them in different places.

Experiment: Ocular tissue concentrations (aqueous humor, vitreous humor, iris, retina, choroid, cornea) after topical ocular, subcutaneous and intravitreal administration
Type: in vivo, New Zealand White rabbits
Conditions: New Zealand White, rabbit; for concentration at 2 h / concentration at 4 h / concentration at 0.5 hr / concentration at 1 h: subcutaneous, 5 mg/kg/dose, subcutaneous 5 mg/kg/dose; for concentration at 6 h / concentration at 24 h / concentration at 48 h / concentration at 72 h: other: intravitreal, 2.5 mg/eye
Protocol: To measure the concentration of Compound 1 in plasma and ocular tissues following topical ocular, subcutaneous, and intravitreal administration, New Zealand White rabbits were administered Compound 1, and plasma and ocular samples were collected at pre-determined time points. Compound 1 formulations were prepared fresh on each day of dosing.
Ocular tissue samples from both eyes of each animal were collected and weights were recorded. Plasma and ocular tissue sample concentrations of Compound 1 were determined by LC-MS/MS.
New Zealand White rabbits weighing 2.5 to 3.5 kg were used on this study. Rabbits were housed one per cage. Animals were not fasted and only healthy animals with no ocular illness were used. Two rabbits per group were sacrificed at each of four ocular tissue sampling time points for a total of eight rabbits per group.
Animals were anesthetized for ocular (topical) and intravitreal dosing following the 12IA7 IACUC protocol. Each rabbit received a bolus dose of test formulation either via topical ocular administration 3 times daily on Days 1 and 2 (at 0, 6, and 12 hours), and once on Day 3 (at 0 hours) into both eyes; via intravitreal administration into both eyes once on Day 1 (at 0 hours); or via subcutaneous administration 2 times daily on Days 1 and 2 (at 0 and 8 hours) and once daily on Day 3 (at 0 hours). Doses were given within an approximately 1 hour window each day where applicable.
On Day 1, for intravitreal administration, or on Day 3, for topical ocular and subcutaneous administration, at the appropriate ocular tissue collection time points, animals were euthanized and both eyes were enucleated immediately. Following enucleation, each eye was rinsed with phosphate-buffered saline. Ocular tissue samples from both eyes of each animal were collected at predetermined time points and weights were recorded. All the samples were frozen immediately on dry ice, and stored at −60° C. to −80° C. pending bioanalysis.
An LC-MS/MS method was developed for the determination of Compound 1 in rabbit aqueous tissues (plasma, aqueous and vitreous humor) and solid ocular tissue samples. A pre-study standard curve was analyzed to determine the specificity, range, and lower limit of quantitation of the method. Plasma and tissue homogenate study samples were extracted and analyzed. All the samples were treated identically to the standards.
One eight-point standard curve was used in each analytical batch. To be accepted, each batch must have had at least five of eight standards with accuracy within ±20% of nominal, except at the lower limit of quantification (LLOQ), where ±25% was acceptable.
Concentration versus time data is plotted in FIGS. 3-16. All data are expressed as ng/g of the free drug. Samples that were below the limit of quantitation (0.2 ng/mL) were not used in the calculation of averages.

[1] = iris, TABLE 16: Iris, OD, free acid, Group 3, read-out: Iris Conc. (ng/g) OD
[2] = iris, TABLE 16: Iris, OS, free acid, Group 3, read-out: Iris Conc. (ng/g) OS
[3] = iris, TABLE 16: Iris, free acid, Group 3, read-out: Iris Average
[4] = retina homogenate, Retina homogenate, left eye, intravitreal 2.5 mg/eye (group 5), individual animals, read-out: Conc. (ng/mL) OS
[5] = retina homogenate, Retina homogenate, OD, sodium salt, intravitreal 2.5 mg/eye, Group 4, read-out: Retina Conc. (ng/mL) OD
[6] = retina homogenate, Retina homogenate, right eye, intravitreal 2.5 mg/eye (group 5), individual animals, read-out: Conc. (ng/mL) OD
[7] = retina homogenate, Retina homogenate, OS, sodium salt, intravitreal 2.5 mg/eye, Group 4, read-out: Retina Conc. (ng/mL) OS
[8] = retina homogenate, Retina homogenate, OD, sodium salt, Group 2, read-out: Retina Conc. (ng/mL) OD
[9] = retina homogenate, Retina homogenate, OS, sodium salt, Group 2, read-out: Retina Conc. (ng/mL) OS
[10] = retina homogenate, Retina homogenate, OD, free acid, Group 3, read-out: Retina Conc. (ng/mL) OD
[11] = retina homogenate, TABLE 16: Retina homogenate, OD, free acid, Group 3, read-out: Retina Conc. (ng/mL) OD
[12] = retina, Retina, OD, sodium salt, intravitreal 2.5 mg/eye, Group 4, read-out: Retina Conc. (ng/g) OD
[13] = retina, Retina, sodium salt, intravitreal 2.5 mg/eye, Group 4, read-out: Retina Avg.
[14] = retina, Retina, OS, sodium salt, intravitreal 2.5 mg/eye, Group 4, read-out: Retina Conc. (ng/g) OS

COC(=O)N[C@@H](Cc1ccccc1)C(=O)N[C@@H](Cc1ccc(NS(=O)(=O)O)cc1)c1csc(-c2cccs2)n1 [Compound 1]
concentration at 2 h [1]: 30.5 ng/g | concentration at 2 h [2]: 29.5 ng/g | concentration at 2 h [3]: 27.6 ng/g | concentration at 4 h [1]: 26.5 ng/g | concentration at 4 h [2]: 16.9 ng/g | concentration at 4 h [3]: 17.5 ng/g | concentration at 6 h [4]: 154000 ng/mL | concentration at 24 h [5]: 29200 ng/mL | concentration at 24 h [6]: 130000 ng/mL | concentration at 48 h [5]: 6490 ng/mL | concentration at 48 h [7]: 6030 ng/mL | concentration at 48 h [6]: 66700 ng/mL | concentration at 72 h [5]: 750 ng/mL | concentration at 72 h [7]: 370 ng/mL | concentration at 72 h [4]: 10800 ng/mL | concentration at 72 h [6]: 9890 ng/mL | concentration at 0.5 hr [8]: 2.77 ng/mL | concentration at 0.5 hr [9]: 4.36 ng/mL | concentration at 1 h [10]: 0.942 ng/mL | concentration at 1 h [8]: 2.04 ng/mL | concentration at 1 h (retina homogenate, Retina homogenate, OS, free acid, Group 3, read-out: Retina Conc. (ng/mL) OS): 0.63 ng/mL | concentration at 1 h [9]: 3.93 ng/mL | concentration at 2 h [10]: 0.574 ng/mL | concentration at 2 h [8]: 1.36 ng/mL | concentration at 2 h [9]: 1.62 ng/mL | concentration at 4 h [8]: 1.79 ng/mL | concentration at 1 h [11]: 0.942 ng/mL | concentration at 1 h (retina homogenate, TABLE 16: Retina homogenate, OS, free acid, Group 3, read-out: Retina Conc. (ng/mL) OS): 0.63 ng/mL | concentration at 2 h [11]: 0.574 ng/mL | concentration at 6 h [12]: 431000 ng/g | concentration at 6 h [13]: 774000 ng/g | concentration at 24 h [12]: 321000 ng/g | concentration at 24 h [14]: 308000 ng/g | concentration at 24 h [13]: 356000 ng/g | concentration at 48 h [12]: 71400 ng/g | concentration at 48 h [14]: 66300 ng/g | concentration at 48 h (retina, Retina, average, intravitreal 2.5 mg/eye (group 5), read-out: Avg.): 680000 ng/g | concentration at 48 h (retina, Retina, left eye, intravitreal 2.5 mg/eye (group 5), individual animals, read-out: Conc. (ng/g) OS): 154000 ng/g | concentration at 48 h (retina, Retina, right eye, intravitreal 2.5 mg/eye (group 5), individual animals, read-out: Conc. (ng/g) OD): 734000 ng/g
